Data: patent US20060229209A1, “Copolymers based on n-vinylamide as adjuvants and agents for using in the agrotechnical field” (priority 2002, published 2006)

System: Puccinia recondita
Assay: Improvement in the fungicidal activity: wheat leaves inoculated with Puccinia recondita, sprayed with fungicide plus test additive, visual assessment of infestation
Format: in vivo, Puccinia recondita on wheat variety "Kanzler"
Details: no test additive, 8 days in greenhouse after spraying
Method: Both of the leaves which developed first of wheat seeds of the variety “Kanzler”, which were raised in pots, were dusted with spores of Puccinia recondita. In order to guarantee the success of the artificial inoculation, the plants were kept for 24 hours in a humidity chamber without light at a relative humidity of 95 to 99% and a temperature of 20 to 22° C. The next day, the plants were sprayed with an aqueous suspension comprising fungicide at the concentration given below as a mixture with water and 125 ppm of the test additive. The plants were allowed to dry in the air. The experimental plants were subsequently cultivated in a greenhouse for 8 days at a temperature of 22 to 26° C. and a relative humidity of between 40 and 80%. The extent of the fungal infestation on the leaves was assessed visually and expressed as a percentage of the affected leaf area with respect to the unaffected leaf area.

SMILES | % affected leaf area (Epoxiconazole 0.125 ppm a.c.) [%] | % affected leaf area (Epoxiconazole 0.25 ppm a.c.) [%] | % affected leaf area (Pyraclostrobin 1 ppm a.c.) [%] | % affected leaf area (Pyraclostrobin 2 ppm a.c.) [%]
Fc1ccc([C@]2(Cn3cncn3)O[C@H]2c2ccccc2Cl)cc1 (racemic) [Epoxiconazole, epoxiconazole] | 53 | 47 | – | –
COC(=O)N(OC)c1ccccc1COc1ccn(-c2ccc(Cl)cc2)n1 [Pyraclostrobin, pyraclostrobin] | – | – | 32 | 13
